Reference: ChEMBL document CHEMBL5352444, “Development of benzene and benzothiazole-sulfonamide analogues as selective inhibitors of the tumor-associated carbonic anhydrase IX” (Eur J Med Chem, 2022)

How the values were obtained:
Carbonic anhydrase 9 = Carbonic anhydrase 9 (Homo sapiens, UniProt Q16790); assay: Inhibition of human carbonic anhydrase 9 assessed as inhibition constant incubated for 15 mins by phenol red dye based stopped flow CO2 hydration assay
Carbonic anhydrase 4 = Carbonic anhydrase 4 (Homo sapiens, UniProt P22748); assay: Inhibition of human carbonic anhydrase 4 assessed as inhibition constant preincubated for 15 mins and measured for 10 to 100 sec by phenol red dye based stopped flow CO2 hydration assay
Sequence of Carbonic anhydrase 4 (P22748 whole entry): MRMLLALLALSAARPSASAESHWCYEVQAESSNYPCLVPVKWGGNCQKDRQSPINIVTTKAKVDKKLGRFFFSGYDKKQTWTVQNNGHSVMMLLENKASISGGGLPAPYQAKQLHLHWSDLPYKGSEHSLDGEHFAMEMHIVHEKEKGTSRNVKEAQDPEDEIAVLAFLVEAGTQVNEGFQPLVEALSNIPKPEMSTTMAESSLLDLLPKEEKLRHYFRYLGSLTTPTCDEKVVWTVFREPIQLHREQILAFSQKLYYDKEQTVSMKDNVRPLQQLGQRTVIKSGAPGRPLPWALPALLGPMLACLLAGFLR

[1] = Cytotoxicity against HGF cells assessed as increase in cell viability at 50 uM incubated for 72 hrs by MTT assay relative to control; type: toxicity, cell-based; settings: human
[2] = Cytotoxicity against HGF cells assessed as cell viability at 50 uM incubated for 72 hrs by MTT assay relative to control; type: toxicity, cell-based; settings: human, read-out: Activity
[3] = Cytotoxicity against HGF cells assessed as increase in cell viability at 10 uM incubated for 72 hrs by MTT assay relative to control; type: toxicity, cell-based; settings: human
[4] = Cytotoxicity against HGF cells assessed as increase in cell viability at 10 uM incubated for 72 hrs by MTT assay relative to doxorubicin; type: toxicity, cell-based; settings: human
[5] = Cytotoxicity against HGF cells assessed as increase in cell viability at 10 uM incubated for 48 hrs by MTT assay relative to doxorubicin; type: toxicity, cell-based; settings: human
Carbonic anhydrase 2 = Carbonic anhydrase 2 (Homo sapiens, UniProt P00918); assay: Inhibition of human carbonic anhydrase 2 assessed as inhibition constant preincubated for 15 mins and measured for 10 to 100 sec by phenol red dye based stopped flow CO2 hydration assay
[6] = Cytotoxicity against HGF cells assessed as increase in cell viability at 50 uM incubated for 48 hrs by MTT assay relative to doxorubicin; type: toxicity, cell-based; settings: human
Carbonic anhydrase 1 = Carbonic anhydrase 1 (Homo sapiens, UniProt P00915); assay: Inhibition of human carbonic anhydrase 1 assessed as inhibition constant preincubated for 15 mins and measured for 10 to 100 sec by phenol red dye based stopped flow CO2 hydration assay
Sequence of Carbonic anhydrase 1 (P00915 whole entry): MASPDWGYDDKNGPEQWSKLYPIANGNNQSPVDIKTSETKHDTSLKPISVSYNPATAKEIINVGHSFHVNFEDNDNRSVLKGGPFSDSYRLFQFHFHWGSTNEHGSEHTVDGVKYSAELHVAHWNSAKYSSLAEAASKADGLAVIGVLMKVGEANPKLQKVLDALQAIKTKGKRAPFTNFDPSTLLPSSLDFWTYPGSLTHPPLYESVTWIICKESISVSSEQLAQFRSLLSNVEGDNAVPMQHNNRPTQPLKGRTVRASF

[7] = Cytotoxicity against HGF cells assessed as increase in cell viability at 50 uM incubated for 48 hrs by MTT assay relative to control; type: toxicity, cell-based; settings: human
[8] = Cytotoxicity against HGF cells assessed as increase in cell viability at 10 uM incubated for 48 hrs by MTT assay relative to control; type: toxicity, cell-based; settings: human

| SMILES | Ki (Carbonic anhydrase 9) [nM] | Ki (Carbonic anhydrase 4) [nM] | Ki (Carbonic anhydrase 2) [nM] | Ki (Carbonic anhydrase 1) [nM] | Activity [1] | viability at 72 h, 50 µM [2] [%] | Activity [3] | Activity [4] | Activity [5] | Activity [6] | Activity [7] | Activity [8] |
| --- | --- | --- | --- | --- | --- | --- | --- | --- | --- | --- | --- | --- |
| CN1CCN(C(=S)SCC(=O)Nc2ccc(S(N)(=O)=O)cc2)CC1 | 255 | 420 | – | – | – | – | – | – | – | – | – | – |
| Cc1ccc(N2CCN(C(=S)SCC(=O)Nc3ccc(S(N)(=O)=O)cc3)CC2)cc1 | 1250 | 2310 | 371 | 2010 | – | – | – | – | – | – | – | – |
| CCOC(=O)N1CCN(C(=S)SCC(=O)Nc2ccc(S(N)(=O)=O)cc2)CC1 | 136 | 779 | 5.7 | 54.8 | – | – | – | – | – | – | – | – |
| NS(=O)(=O)c1ccc(NC(=O)CSC(=S)N2CCN(C(c3ccccc3)c3ccccc3)CC2)cc1 | 154 | 8450 | 441 | 1810 | – | – | – | – | – | – | – | – |
| NS(=O)(=O)c1ccc(NC(=O)CSC(=S)N2CCOCC2)cc1 | 162 | 649 | 7.2 | 72.8 | – | – | – | – | – | – | – | – |
| NS(=O)(=O)c1ccc(NC(=O)CSC(=S)N2CCN(Cc3ccccc3)CC2)cc1 | 31.6 | 3400 | 17.4 | 84.1 | – | – | – | – | – | – | – | – |
| CCOC(=O)N1CCN(C(=S)SCC(=O)Nc2nc3ccc(S(N)(=O)=O)cc3s2)CC1 | 22.1 | > 10000 | 50.3 | 7570 | Toxic | > 60 | Toxic | Non-Toxic | Non-Toxic | Non-Toxic | – | – |
| CCN1CCN(C(=S)SCC(=O)Nc2ccc(S(N)(=O)=O)cc2)CC1 | 296 | 189 | 4.9 | 8.2 | – | – | – | – | – | – | – | – |
| NS(=O)(=O)c1ccc(NC(=O)CSC(=S)N2CCCCC2)cc1 | 261 | 406 | 6 | 27.5 | – | – | – | – | – | – | – | – |
| NS(=O)(=O)c1ccc(NC(=O)CSC(=S)N2CCN(c3ccc(F)c(Cl)c3)CC2)cc1 | 276 | 2440 | 438 | 2120 | – | – | – | – | – | – | – | – |
| COc1ccc(N2CCN(C(=S)SCC(=O)Nc3ccc(S(N)(=O)=O)cc3)CC2)cc1 | 564 | 901 | 298 | 2080 | – | – | – | – | – | – | – | – |
| COc1ccccc1N1CCN(C(=S)SCC(=O)Nc2ccc(S(N)(=O)=O)cc2)CC1 | 32.2 | > 10000 | 611 | 36.6 | Toxic | > 60 | Toxic | Non-Toxic | Non-Toxic | Non-Toxic | Toxic | – |
| CC(=O)Nc1nnc(S(N)(=O)=O)s1 [ACETAZOLAMIDE] | – | – | – | – | Toxic | > 60 | – | Non-Toxic | Non-Toxic | Non-Toxic | – | – |
| COc1cccc2c1C(=O)c1c(O)c3c(c(O)c1C2=O)C[C@@](O)(C(=O)CO)C[C@@H]3O[C@H]1C[C@H](N)[C@H](O)[C@H](C)O1 [DOXORUBICIN] | – | – | – | – | Toxic | – | Toxic | – | – | – | Toxic | Toxic |

Second part, led by results:

| Ki (Carbonic anhydrase 9) [nM] | Ki (Carbonic anhydrase 4) [nM] | Ki (Carbonic anhydrase 2) [nM] | Ki (Carbonic anhydrase 1) [nM] | SMILES | Activity [1] | viability at 72 h, 50 µM [2] [%] | Activity [3] | Activity [4] | Activity [5] | Activity [6] | Activity [7] | Activity [8] |
| --- | --- | --- | --- | --- | --- | --- | --- | --- | --- | --- | --- | --- |
| 30.3 | 7260 | 51.5 | 5030 | COc1ccccc1N1CCN(C(=S)SCC(=O)Nc2nc3ccc(S(N)(=O)=O)cc3s2)CC1 | Toxic | > 60 | Toxic | Non-Toxic | Non-Toxic | Non-Toxic | – | – |
| 28.8 | 5930 | 2.5 | 56.1 | CCN1CCN(C(=S)SCC(=O)Nc2nc3ccc(S(N)(=O)=O)cc3s2)CC1 | – | – | – | – | – | – | – | – |
| 744 | 1470 | 240 | 707 | NS(=O)(=O)c1ccc(NC(=O)CSC(=S)N2CCN(c3ccccc3)CC2)cc1 | – | – | – | – | – | – | – | – |
| 30.6 | 5090 | 4.1 | 20.8 | CN1CCN(C(=S)SCC(=O)Nc2nc3ccc(S(N)(=O)=O)cc3s2)CC1 | – | – | – | – | – | – | – | – |
| 25.9 | 5540 | 297 | 599 | NS(=O)(=O)c1ccc2nc(NC(=O)CSC(=S)N3CCN(Cc4ccccc4)CC3)sc2c1 | Toxic | > 60 | Toxic | Non-Toxic | Non-Toxic | Non-Toxic | – | – |
| 157 | 7640 | 965 | 9150 | NS(=O)(=O)c1ccc2nc(NC(=O)CSC(=S)N3CCN(C(c4ccccc4)c4ccccc4)CC3)sc2c1 | – | – | – | – | – | – | – | – |
| 26.6 | 7440 | 3.8 | 85.6 | NS(=O)(=O)c1ccc2nc(NC(=O)CSC(=S)N3CCCCC3)sc2c1 | – | – | – | – | – | – | – | – |
| 115 | > 10000 | 91.4 | 4190 | NS(=O)(=O)c1ccc2nc(NC(=O)CSC(=S)N3CCN(c4ccccc4)CC3)sc2c1 | – | – | – | – | – | – | – | – |
| 26.8 | 8120 | 27.9 | 8.8 | NS(=O)(=O)c1ccc2nc(NC(=O)CSC(=S)N3CCOCC3)sc2c1 | – | – | – | – | – | – | – | – |
| 30.9 | > 10000 | 363 | 958 | COc1ccc(N2CCN(C(=S)SCC(=O)Nc3nc4ccc(S(N)(=O)=O)cc4s3)CC2)cc1 | Toxic | > 60 | Toxic | Non-Toxic | Non-Toxic | Non-Toxic | – | – |
